{"source": "patent US6660837B1", "about": "“Modified protein derived from protein kinase N” (Kirin Beer Kabushiki Kaisha, priority 1995, dated 2003)", "key": {"[1]": {"tested_on": "head-rod domain of NF subunit (NFL, NFM, NFH)", "experiment": "Yeast two-hybrid, PKN N-terminal region with NF head-rod domains", "assay_type": "binding", "conditions": "lacZ expression", "procedure": "Specificity of the interaction between PKN and various NFs was investigated by measuring the ability of the two-hybrid constructs, pBTM116(Vojtek, A. B. et al., Cell, 74, 205-214 (1993)) (instead of pGBT9)-PKN and pVP16 (Vojtek, A. B. et al., Cell, 74, 205-214 (1993)) (instead of pGAD10)-NF or in reverse, to support lacZ expression in L40 cells.\nYeast expression vectors were prepared as follows. Yeast expression vector pVP/NFL#21 for the VP16 transcription activation domain-head-rod domain of human NFL was made by subcloning a EcoRI insert (amino acid sequence 1-349) of a library plasmid #21 originally isolated from two-hybrid screening into pVP16 vector (Vojtek, A. B. et al., Cell, 74, 205-214 (1993)). Yeast expression vectors for the VP16 transcription activation domain—tail domain of NFL and NFH or the VP16 transcription activation domain—head-rod domain or tail domain of NFM were constructed by subcloning BamHI/NotI insert of pGST/NFLt, pGST/NFHt, pGST/NFMhr, and pGST/NFMt (described in Example 8) into pVP16 in frame, respectively (designated respectively as pVP/NFLt, pVP/NFHt, pVP/NFMhr, and pVP/NFMt). […]"}, "[2]": {"molecular_target": "T1, carboxyl-terminal catalytic region of PKN (Homo sapiens, UniProt Q16512)", "T1 construct": "made in house; host or cells: in vitro translation in reticulocyte lysate (Promega)", "T1 sequence (Q16512 614-942)": "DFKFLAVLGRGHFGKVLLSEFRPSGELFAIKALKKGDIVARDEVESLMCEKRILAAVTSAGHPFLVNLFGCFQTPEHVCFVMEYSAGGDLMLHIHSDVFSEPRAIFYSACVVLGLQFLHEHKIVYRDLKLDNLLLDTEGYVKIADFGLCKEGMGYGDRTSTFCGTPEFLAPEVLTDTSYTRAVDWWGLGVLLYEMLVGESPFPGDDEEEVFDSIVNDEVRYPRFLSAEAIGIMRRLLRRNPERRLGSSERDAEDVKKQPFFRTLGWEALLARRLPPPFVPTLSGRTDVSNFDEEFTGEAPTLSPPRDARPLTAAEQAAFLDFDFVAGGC", "experiment": "In vitro binding, regulatory with catalytic region of PKN (GST pull-down)", "source_text": "Truncated human PKN was made as follows; expression vector pPKN-N for amino-terminal region of PKN was made by digesting phPKN-H4 (human PKN cDNA inserted in pBluescript II SK) (Mukai, H. & Ono, Y., Biochem. Biophys. Res. Commun. 199, 897-904 (1994)) with BstEII, and filling-in both the ends with T4 DNA polymerase, and self-ligation. The resulting plasmid codes for amino acid residues of PKN from 1 to 474 in SEQ ID NO: 1. cDNA insert from this plasmid was cloned into pRc/CMV (Invitrogen Corp.). Fragment coding for the amino acids 614-942, in SEQ ID NO: 1, containing the catalytic domain of human PKN was made by PCR amplification. Expression vector pPKN-C for the carboxyl-terminal region of PKN was made by subcloning this fragment into pRc/CMV. These plasmids were linealized by cutting with XbaI, and cRNA was transcribed using T7 RNA polymerase. cRNA was translated in a […] reticulocyte lysate (Promega) in the presence of [^35S] methionine. […]\nIn vitro translated PKN-N or PKN-C (2.5 μl) was mixed with 5 μg of each GST-PKN-N or GST-PKN-C fusion protein or 25 μg of GST alone in 400 μl of GST binding buffer [20 mM Tris/HCl (pH 7.5), 0.5 mM DTT, 150 mM NaCl, 0.05% Triton X-100, 1 mM EDTA, 1 μg/ml leupeptin] and incubated for 1 hr at 4° C. […] Quantification of the binding reactions was carried out by a BAS 1000 bio-imaging analyzer (FUJI)."}}}
{"substance": "N-terminal region of PKN: N-terminal regulatory region of human PKN: 1-540 (PKNN1) in two-hybrid and GST fusions, 1-474 when in vitro translated", "values": [{"measurement": "binding to head-rod domain of each NF subunit in two-hybrid system", "setting": "[1]", "result": "bound"}, {"measurement": "binding to carboxyl-terminal catalytic region of PKN in vitro", "setting": "[2]", "result": "directly binds"}]}
